≈ marks a conversion by molar mass, not a printed value.

The subject of data set [1] is SN12C. Description: NCI60 screen cytotoxicity. The data set is classed as cell-based. To be noted: Homo sapiens, Renal cancer, read-out: Compound B1 EC50.
Data set [2] has as its system KM-12. As to the kind of experiment: NCI60 screen cytotoxicity. Type of data set: cell-based. To be noted: Homo sapiens, KM12, Colon cancer, read-out: Compound B1 EC50.
Data set [3] deals with SF-539. Description: NCI60 screen cytotoxicity. The data set is classed as cell-based. To be noted: Homo sapiens, CNS, read-out: Compound B1 EC50.
Data set [4] is described as follows: Kinetic solubility by differential UV absorbance. The data set is classed as physicochemical. To be noted: aqueous buffer, kinetic from dmso stock; DMSO stock diluted in PBS, OD before and after centrifugation. On the procedure: FIG. 3A-3B depict the kinetic solubility of Compound B1 (FIG. 3A) and Compound E1 (FIG. 3B) as measured by differential UV absorbance of the compounds, as performed before and after centrifugation. Soluble concentrations were determined when OD was equivalent between centrifuged and non-centrifuged fractions. Compounds were dissolved from co-solvent stock, and further serially 2-fold diluted in PBS. OD was measured at the maximal absorbance for each compound before (BC) and after (AC) centrifugation, using Spark 20M, Tecan.
Kinetic solubility quantification. Compound B1/Compound E1 DMSO stock was diluted with PBS by serial 2-fold dilutions. Then, the samples were centrifuged for 5 minutes at 17,000 g to precipitate any insoluble compound. Each sample was tested at a single wave length (Compound B1 at […]; Compound E1 at […]) in duplicate before and after centrifugation to assess solubility of the compound. Soluble concentrations were determined when optical density (OD) was equivalent between centrifuged and non-centrifuged fractions.
Kinetic solubility of all Compounds was determined by differential UV absorbance before and after centrifugation. […] Solubility concentration was determined when OD was equivalent between centrifuged and non-centrifuged fractions (FIG. 3A-3B).

Data set [5] has as its system SK-N-AS. As to the kind of experiment: Cell viability panel, ATPlite 1Step. Type of data set: cell-based. To be noted: Homo sapiens, Neuroblastoma, 72 h exposure, read-out: Compound EC50. The method, boiled down:
(§1)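 ATPlite: optimal density 200-6400 cells/well, ATCC medium, 8 conc 0.04-32 μM, 72 h. CyQUANT: 24 h pre-seed, 5,000-40,000 cells/well, RPMI 1640 + 10% FBS + 2 mM Gln, 0.04-1 μM, 48 h 37° C., EC50 from [(Ti−Tz)/(C−Tz)]×100.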

Data set [6] has as its system RS4-11. As to the kind of experiment: Cell viability panel, ATPlite 1Step. Type of data set: cell-based. To be noted: Homo sapiens, B acute lymphoblastic leukemia, 72 h exposure, read-out: Compound EC50. The method, boiled down:
as §1

In data set [7] the test system is THP-1. As to the kind of experiment: Cell viability panel, ATPlite 1Step. To be noted: Homo sapiens, Acute monocytic leukemia, 72 h exposure, read-out: Compound EC50. Type of data set: cell-based. In short, it runs like this:
as §1

Data set [8] deals with PFSK-1. Description: Cell viability panel, ATPlite 1Step. The data set is classed as cell-based. To be noted: Homo sapiens, Primitive neuroectodermal tumor, 72 h exposure, read-out: Compound EC50. The method, boiled down: as §1
For data set [9], the system named is DoTc2 4510. As to the kind of experiment: Cell viability panel, ATPlite 1Step. The data set is classed as cell-based. To be noted: Homo sapiens, Cervical carcinoma, 72 h exposure, read-out: Compound EC50. In short, it runs like this:
as §1

Data set [10] relates to PA-1. Description: Cell viability panel, ATPlite 1Step. The data set is classed as cell-based. To be noted: Homo sapiens, Ovarian mixed germ cell tumor, 72 h exposure, read-out: Compound EC50. The method, boiled down: as §1
Data set [11] deals with 5637. Description: Cell viability panel, ATPlite 1Step. To be noted: Bladder carcinoma, 72 h exposure, read-out: Compound EC50. Type of data set: cell-based. The method, boiled down:
as §1

The test system of data set [12] is RPMI-7951. Description: Cell viability panel, ATPlite 1Step. The data set is classed as cell-based. To be noted: Homo sapiens, Melanoma, 72 h exposure, read-out: Compound EC50. The method, boiled down: as §1
Data set [13] deals with Hs 746T. As to the kind of experiment: Cell viability panel, ATPlite 1Step. Type of data set: cell-based. To be noted: Homo sapiens, Hs746T, Gastric adenocarcinoma, 72 h exposure, read-out: Compound EC50. The method, boiled down:
as §1

Data set [14] has as its system U-118 MG. Description: Cell viability panel, ATPlite 1Step. Type of data set: cell-based. To be noted: Homo sapiens, Astrocytoma, 72 h exposure, read-out: Compound EC50. The method, boiled down: as §1
The subject of data set [15] is PC-3. As to the kind of experiment: Cell viability panel, ATPlite 1Step. Type of data set: cell-based. To be noted: Homo sapiens, Prostate carcinoma, 72 h exposure, read-out: Compound EC50. The method, boiled down: as §1
The test system of data set [16] is HuTu 80. As to the kind of experiment: Cell viability panel, ATPlite 1Step. Type of data set: cell-based. To be noted: Homo sapiens, HuTu80, Duodenal adenocarcinoma, 72 h exposure, read-out: Compound EC50. The method, boiled down:
as §1

Data set [17] concerns COLO 829. Description: Cell viability panel, ATPlite 1Step. The data set is classed as cell-based. To be noted: Homo sapiens, Cutaneous melanoma, 72 h exposure, read-out: Compound EC50. The method, boiled down:
as §1

The test system of data set [18] is 769-P. Description: Cell viability panel, ATPlite 1Step. The data set is classed as cell-based. To be noted: Homo sapiens, Renal cell carcinoma, 72 h exposure, read-out: Compound EC50. The method, boiled down: as §1
Data set [19] concerns RT4. As to the kind of experiment: Cell viability panel, ATPlite 1Step. To be noted: Homo sapiens, RT-4, Bladder carcinoma, 72 h exposure, read-out: Compound EC50. Type of data set: cell-based. The method, boiled down: as §1
Data set [20] deals with SUP-T1. Description: Cell viability panel, ATPlite 1Step. Type of data set: cell-based. To be noted: Homo sapiens, T lymphoblastic lymphoma, 72 h exposure, read-out: Compound EC50. In short, it runs like this:
as §1

Data set [21] concerns BT-549. As to the kind of experiment: Cell viability panel, ATPlite 1Step. The data set is classed as cell-based. To be noted: Homo sapiens, Invasive ductal carcinoma, 72 h exposure, read-out: Compound EC50. The method, boiled down: as §1
In data set [22] the test system is A388. As to the kind of experiment: Cell viability panel, ATPlite 1Step. The data set is classed as cell-based. To be noted: Squamous cell carcinoma, 72 h exposure, read-out: Compound EC50. The method, boiled down:
as §1

The test system of data set [23] is COLO 205. Description: Cell viability panel, ATPlite 1Step. Type of data set: cell-based. To be noted: Homo sapiens, Colon adenocarcinoma, 72 h exposure, read-out: Compound EC50. The method, boiled down:
as §1

Data set [24] deals with VA-ES-BJ. As to the kind of experiment: Cell viability panel, ATPlite 1Step. To be noted: Epithelioid sarcoma, 72 h exposure, read-out: Compound EC50. The data set is classed as cell-based. In short, it runs like this: as §1

Regarding `CN(C)CC(=O)NCC(=O)N1C/C(=C\c2ccc(C#N)cc2)C(=O)/C(=C/c2ccc(C#N)cc2)C1` [Compound B1], the figures for the EC50 in data set [1], in [2] and in data set [3] were less than 300 nM, less than 300 nM and 300 to 1000 nM, respectively. Further, the kinetic solubility in data set [4] came to 50 µM (≈ 23.4 µg/mL).

As to `CN(C)CCCS(=O)(=O)N1C/C(=C\c2ccc(C#N)cc2)C(=O)/C(=C/c2ccc(C#N)cc2)C1` [Compound AA], the concentration giving a half-maximal response (EC50) in [5] was less than 300 nM; in data set [6], less than 300 nM; in data set [7], 300 to 1000 nM; in data set [8], less than 300 nM; in [9], less than 300 nM; in [10] it was less than 300 nM. In addition, the EC50 in data set [11] is less than 300 nM; in data set [12], less than 300 nM; in data set [13], less than 300 nM; in data set [14], less than 300 nM; in data set [15] it was 300 to 1000 nM; in [16], less than 300 nM. Moreover, the EC50 in data set [17] was less than 300 nM; in data set [18], less than 300 nM; in data set [19], 300 to 1000 nM; in data set [20], less than 300 nM; in [21] it was less than 300 nM; in [22], less than 300 nM. The half-maximal effective concentration (EC50) in [23] and in data set [24] was less than 300 nM each time.

Values taken from patent US20200399262A1, “COMPOUNDS FOR INHIBITING PROTEIN DEGRADATION AND METHODS OF USE THEREOF IN THE TREATMENT OF CANCER” (PI Therapeutics Ltd, priority 2018, published 2020).
